Experimental data published in patent US20250313544A1, “INHIBITORS OF GLUTATHIONE S-TRANSFERASE ZETA 1 (GSTZ1) AND METHODS OF USE” (H. LEE MOFFITT CANCER CENTER AND RESEARCH INSTITUTE, INC., priority 2022, published 2025).

Key:
[1] = system: drug-refractory NSCLC cells (H1792, H520, HCC366); experiment: Cell viability assay (CellTiter-Glo) across drug-refractory NSCLC cell lines; format: cell-based, human
Method: Cells were seeded in Corning 384-well black walled/clear bottom microplates with a density of 1,000 cells/well and treated with indicated drugs and concentrations following cell attachment for 24 h. After 72 h or 96 h, as indicated, cell viability was evaluated with CellTiter-Glo (Promega, Madison, WI) according to manufacturer's recommendations. An M5 Spectramax plate reader (Molecular devices) was used to read the plates with 500 ms integration. Data was processed and analyzed using Excel and GraphPad Prism 9.0.

GSTZ1 = target: T1, GSTZ1 (Homo sapiens, UniProt O43708); experiment: GSTZ1 enzymatic activity assay (CNBF-GSH adduct absorbance at 420 nm); format: biochemical; set-up: dose or concentration left out as unconfirmed; details: without UV irradiation, 10 mins, room temperature
T1 sequence (O43708 1-216): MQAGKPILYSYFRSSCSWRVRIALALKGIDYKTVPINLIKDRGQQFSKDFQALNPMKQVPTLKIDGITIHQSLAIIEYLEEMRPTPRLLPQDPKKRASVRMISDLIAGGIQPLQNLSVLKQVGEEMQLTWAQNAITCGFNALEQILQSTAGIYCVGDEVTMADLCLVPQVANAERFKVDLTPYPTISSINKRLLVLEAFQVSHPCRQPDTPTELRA
Method: The GSTZ1 activity assay with its substrate 4-Chloro-7-nitrobenzofurazan (CNBF) was read at 420 nm, which indicates the absorbance of CNBF-GSH adducts as previously reported^61. For experiments without UV irradiation, the reaction was started by adding DMSO or probe 17, 10 μg of recombinant GSTZ1 proteins, 0.2 mM of CNBF, and 2 mM of GSH at room temperature in a final volume of 100 μl HEPES buffer at pH 5.5. For UV irradiation experiments, GSTZ1 protein was incubated with DMSO or probe 17 for 10 minutes under UV light. Each reaction was performed as at least two biological replicates. Spectrophotometry measurements were recorded using an M5 Spectramax plate reader (Molecular devices). Data was processed and analyzed using Excel and GraphPad Prism 9.0. Optical density (OD) readouts of GSTZ1-catalyzed reactions were corrected by subtracting measurements of non-enzymatic reactions. Relative GSTZ1 activity was calculated by normalizing corrected OD readouts of GSTZ1-catalyzed reactions with probe 17 to that of GSTZ1-catalyzed reactions without probe 17. For assays with UV irradiation, recombinant GSTZ1 was produced in-house. To this end, 6His-GFP tag full length human GSTZ1 (Uniprot ID: 043708) with TEV protease cleavage site in pET28-a-(+) vector (GeneScript) was transformed into BL21 DE3 cells (Cat #EC0114, ThermoFisher). […]

H1792 cells = experiment: In-gel fluorescence analysis of probe-labeled proteins after photocrosslinking in live H1792 cells; format: binding, human; details: compared to vehicle
Method: Cells were grown in 10 cm dishes to ˜90% confluence at the time of treatment. Cells were carefully washed twice with Dulbecco's phosphate buffered saline (DPBS) and replenished with fresh serum-free RPMI 1640 media containing indicated probes ([…]), competitors, or DMSO. Without competitors, cells were incubated with probes for 30 min at 37° C. and then exposed to 365 nm UV light for 15 min on ice. With competitors, cells were pre-treated with competitors for 30 min and photoactivated for 15 min. Probes were then added to cells for an additional 30 min incubation. For no UV experiments, cells were incubated for 15 min under ambient light. Cells were harvested in cold DPBS and pellets were washed with cold DPBS (2 X). Pellets were either directly processed or kept frozen at −80° C. until use. Cells pellets were lysed for 30 min in cold DPBS (100-300 uL) per culture dish supplemented with 1% NP-40, followed by sonication (5 pulses, 4 s on, 20 s off, output setting=4). Lysates were centrifuged at 20,817×g for 20 min, and supernatant (soluble proteome) was used for further processing. Protein concentrations were determined using Bradford assays.
To 1 mg of protein, were added a mixture of TBTA (Tris((1-benzyl-4-triazolyl)methyl)amine, 60 μL/sample, 1.7 mM in 1:4 DMSO: t-BuOH stock), CuSO4 (20 μL/sample, 50 mM in H2O), TCEP (tris(2-carboxyethyl) phosphine, 20 μL/sample, 50 mM in DPBS, made fresh) and Biotin-Azide conjugate (10 μL/sample, 10 mM in DMSO stock). Each sample was rotated at room temperature for 2 h. To each resultant a cold 4:1 mixture (600 μL) of methanol (MeOH)/chloroform (CHCl3) was added followed by cold PBS (100 μL) on ice. The resulting cloudy mixture was centrifuged (5,000×g, 10 min, 4° C.) to fractionate the protein interface from the organic and aqueous solvent layers. A MeOH:CHCl3 (1:1, 1 mL, 2×) mixture was used to wash protein discs thoroughly. Protein discs were sonicated in cold 4:1 MeOH:CHCl3 (2 mL) mixture. The remaining precipitate was pelleted by centrifugation (5,000×g, 10 min, 4° C.). […] Gels were subjected to fluorescence imaging or Western Blotting.

C#CCCC1(CCC(=O)N2CCC(COc3nc4ccccc4nc3C)CC2)N=N1 [Probe 17, 3-(3-(but-3-yn-1-yl)-3H-diazirin-3-yl)-1-(4-(((3-methylquinoxalin-2-yl)oxy)methyl)piperidin-1-yl)propan-1-one]
single agent activity (cell viability) [1]: moderate single agent activity
cellular activity of probes (cell viability) ([1]; single agent): displayed activity toward multiple tested cell lines
relative potency among active probes (cell viability) ([1]; single agent): more potent
GSTZ1 activity reduced by (GSTZ1): 68%
proteome labeling by probe (in-gel fluorescence) (H1792 cells): efficiently labeled a wide range of proteins
